Structures can show the parent of a compound that is named as a salt. Where two headings read alike, the source gives them in different places.

In experiment [1] the target is T1, α1A Human Adrenergic Receptor (Homo sapiens, UniProt P25100).
T1 construct: The entire coding region of α1A (1719 bp); expressed in transfected cells
T1 sequence (P25100 1-572): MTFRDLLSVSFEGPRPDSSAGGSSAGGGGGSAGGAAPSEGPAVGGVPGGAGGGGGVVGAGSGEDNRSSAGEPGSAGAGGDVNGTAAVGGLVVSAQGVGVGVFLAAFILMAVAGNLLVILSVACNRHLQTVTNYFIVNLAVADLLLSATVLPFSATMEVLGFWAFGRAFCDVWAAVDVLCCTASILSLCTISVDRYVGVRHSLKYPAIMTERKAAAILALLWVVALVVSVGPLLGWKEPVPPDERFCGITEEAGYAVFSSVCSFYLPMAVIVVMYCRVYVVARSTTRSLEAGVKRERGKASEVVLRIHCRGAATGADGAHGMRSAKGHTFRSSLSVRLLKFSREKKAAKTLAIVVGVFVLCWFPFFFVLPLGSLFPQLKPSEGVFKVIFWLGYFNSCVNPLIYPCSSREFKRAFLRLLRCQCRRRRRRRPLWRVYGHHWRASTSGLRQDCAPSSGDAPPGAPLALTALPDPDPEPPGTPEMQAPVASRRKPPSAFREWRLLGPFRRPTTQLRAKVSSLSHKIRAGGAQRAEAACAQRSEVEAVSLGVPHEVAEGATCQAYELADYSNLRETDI
Description: Radioligand binding, [3H]prazosin, cloned human α1A adrenergic receptor. The note with it: for Ki: read-out: pKi alpha-1 1a (converted). The method, boiled down: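 [3H]prazosin 0.5 nM, transfected LM(tk−) membranes, 37° C, 20 min. Buffer 50 mM Tris-HCl/1 mM MgCl2/0.1% ascorbate, pH 7.5. NSB: 10 μM phentolamine. Filtration harvest.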

In another experiment the target is T2, α2A receptor (Homo sapiens, UniProt P08913).
T2 construct: host or cells: LM(tk-) cells, line L-α2A
T2 sequence (P08913 1-465): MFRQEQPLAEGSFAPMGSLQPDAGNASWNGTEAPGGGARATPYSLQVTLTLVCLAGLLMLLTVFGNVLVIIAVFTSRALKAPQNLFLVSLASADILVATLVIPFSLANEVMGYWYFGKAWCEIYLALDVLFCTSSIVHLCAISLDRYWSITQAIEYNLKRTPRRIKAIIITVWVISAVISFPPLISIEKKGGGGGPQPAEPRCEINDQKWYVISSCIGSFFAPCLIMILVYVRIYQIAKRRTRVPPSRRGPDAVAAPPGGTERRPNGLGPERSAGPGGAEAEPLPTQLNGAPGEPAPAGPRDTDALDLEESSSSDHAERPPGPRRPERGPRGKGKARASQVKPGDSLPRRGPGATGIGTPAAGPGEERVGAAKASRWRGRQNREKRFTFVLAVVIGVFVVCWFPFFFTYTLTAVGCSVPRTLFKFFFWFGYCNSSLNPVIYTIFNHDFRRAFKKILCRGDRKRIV
Put plainly: Competition binding, [3H]rauwolscine, human α2A receptor. The note with it: for Ki: read-out: pKi alpha-2 2a (converted). The source says: The protocols for these experiments are given below.
α2 Human Adrenergic Receptors:
To determine the potency of […], antagonists at the α2 receptors, LM(tk−) cell lines stably transfected with the genes encoding the α2A, α2B, and α2C receptors were used. The cell line expressing the α2A receptor is designated L-α2A, and was deposited on Nov. […] The cell line expressing the α2B receptor is designated L-NGC-α2B, and was deposited on Oct. […] The cell line expressing the α2C receptor is designated L-α2C, and was deposited on Nov. […] Cell lysates were prepared as described above (see Radioligand Binding Assays), and suspended in 25 mM glycylglycine buffer (pH 7.6 at room temperature). Equilibrium competition binding assay were performed using [3H]rauwolscine (0.5 nM), and nonspecific binding was determined by incubation with 10 μM phentolamine. The bound radioligand was separated by filtration through GF/B filters using a cell harvester.

The target of experiment [2] is T3, α1B Human Adrenergic Receptor (Homo sapiens, UniProt P35368).
T3 construct: The entire coding region of α1B (1563 bp); expressed in transfected cells
T3 sequence (P35368 1-520): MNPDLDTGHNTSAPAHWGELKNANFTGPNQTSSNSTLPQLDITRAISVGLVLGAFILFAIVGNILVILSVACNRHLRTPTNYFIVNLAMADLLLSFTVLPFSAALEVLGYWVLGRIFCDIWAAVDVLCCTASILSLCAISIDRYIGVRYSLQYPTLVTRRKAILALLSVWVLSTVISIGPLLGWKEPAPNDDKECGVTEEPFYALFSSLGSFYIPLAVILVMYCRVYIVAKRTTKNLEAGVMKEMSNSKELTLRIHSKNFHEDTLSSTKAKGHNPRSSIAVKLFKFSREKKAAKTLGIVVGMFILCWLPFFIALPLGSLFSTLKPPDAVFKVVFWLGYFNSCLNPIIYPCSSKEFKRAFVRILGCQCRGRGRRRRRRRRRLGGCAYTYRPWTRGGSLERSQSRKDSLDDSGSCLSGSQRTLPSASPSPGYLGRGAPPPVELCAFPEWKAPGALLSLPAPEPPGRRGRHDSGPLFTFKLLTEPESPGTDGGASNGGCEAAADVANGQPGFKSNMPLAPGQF
Description: Radioligand binding, [3H]prazosin, cloned human α1B adrenergic receptor. The note with it: for Ki: read-out: pKi alpha-1 1b (converted). The method, boiled down: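 [3H]prazosin (0.5 nM) binding was run for 20 min at 37° C in pH 7.5 Tris/MgCl2/ascorbate buffer on membranes of LM(tk−) cells stably expressing the cloned receptor. Filtration through GF/B ended the reaction; 10 μM phentolamine gave nonspecific binding.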

Where [3] appears, read: cloned human receptor in LM(tk-) cell membranes, SEM and n in lines below.
The mark [4] stands for this setting: [3H]prazosin, cloned human receptor in LM(tk-) cell membranes, SEM and n in lines below.
The mark [5] stands for this setting: [3H]rauwolscine, LM(tk-) cell line L-α2A, SEM and n in lines below.

As for “5-Acetyl-1,4-dihydro-2,6-dimethyl-4-(4-nitrophenyl)-3-[3-(4,4-diphenylpiperidin-1-yl)propoxy]carbonylpyridine hydrochloride hemihydrate [Example 49]”, the “pKi alpha-1 1a” value in experiment [1] is given as 6.94. The “pKi alpha-2 2a” value at α2A receptor is 6.63. Further, the “pKi alpha-1 1b” value in experiment [2] (setting [3]) worked out at 6.72.
For the compound `COC(=O)C1=C(C)NC(C)=C(C(=O)NCCCN2CCC(c3ccccc3)CC2)C1c1ccc([N+](=O)[O-])cc1` (racemic) [(±)-45, (±)-1,4-Dihydro-3-methoxycarbonyl-2,6-dimethyl-4-(4-nitrophenyl)-5-{N-[3-(4-phenylpiperidin-1-yl)propyl]}carboxamidopyridine hydrochloride hemihydrate], the Ki in experiment [1] (setting [4]) was 66.1 nM; at α2A receptor (setting [5]) it was 282 nM; in experiment [2] (setting [3]) it was 13.5 nM.
Consider `CNC(=O)C1=C(C)NC(C)=C(C(=O)NCCCN2CCC(c3ccccc3)(c3ccccc3)CC2)C1c1ccc([N+](=O)[O-])cc1` (racemic) [(±)-119, 1,4-Dihydro-2,6-dimethyl-5-(N-Methyl) carboxamido-4-(4-nitrophenyl)-3-{N-[3-(4,4-diphenylpiperidin-1-yl)propyl]}carboxamidopyridine], for which, in experiment [1], the “pKi alpha-1 1a” value was 6.21. Further, the “pKi alpha-2 2a” value on α2A receptor is reported as 6.4. Also, in experiment [2] (cloned human α1B receptor, LM(tk−) cell membranes), the “pKi alpha-1 1b” value is reported as 6.38.
`COC(=O)C1=C(C)NC(C)=C(C(=O)NCCCN2CCC(c3ccccc3)CC2)C1c1ccc([N+](=O)[O-])cc1` (single isomer, unassigned; (+)) [(+)-45, 1,4-Dihydro-3-methoxycarbonyl-2,6-dimethyl-4-(4-nitrophenyl)-5-{N-[3-(4-phenylpiperidin-1-yl)propyl]}carboxamidopyridine hydrochloride hemihydrate]: the Ki in experiment [1] (setting [4]) was 178 nM; at α2A receptor (setting [5]), 240 nM; in experiment [2] (setting [3]), 57.5 nM.
Turning to `COC(=O)C1=C(C)NC(C)=C(C(=O)NCCCN2CCC(c3ccccc3)CC2)C1c1ccc([N+](=O)[O-])cc1` (single isomer, unassigned; (-)) [(−)-45, 1,4-Dihydro-3-methoxycarbonyl-2,6-dimethyl-4-(4-nitrophenyl)-5-{N-[3-(4-phenylpiperidin-1-yl)propyl]}carboxamidopyridine hydrochloride hemihydrate], the Ki in experiment [1] (setting [4]) was 40.7 nM; on α2A receptor (setting [5]), 339 nM; in experiment [2] (setting [3]), 9.12 nM.
Taken in the same sequence, the figures for `COC(=O)C1=C(C)NC(C)=C(C(=O)NCCCCN2CCC(c3ccccc3)CC2)C1c1ccc([N+](=O)[O-])cc1` (centres unmarked) [Example 3, 1,4-Dihydro-3-methoxycarbonyl-2,6-dimethyl-4-(4-nitrophenyl)-5-{N-[4-(4-phenylpiperidin-1-yl)butyl]}carbozamidopyridine hydrochloride hydrate] were 145 nM, 102 nM and 64.6 nM.
With `COC(=O)C1=C(C)NC(C)=C(C(=O)NCCCN2CCC(c3ccccc3)CC2)C1c1ccc(Cl)c([N+](=O)[O-])c1` (centres unmarked) [Example 17, 4-(4-Chloro-3-nitrophenyl)-1,4-dihydro-3-methoxycarbonyl-2,6-dimethyl-5-(N-(3-(4-phenylpiperidin-1-yl)propyl)carboxamido)pyridine], the figures for the Ki (in experiment [1] (setting [4]); at α2A receptor (setting [5]); in experiment [2] (setting [3])) were 126 nM, 347 nM and 41.7 nM, respectively.
The corresponding values for `COC(=O)C1=C(C)NC(C)=C(C(=O)NCCCN2CCC(c3ccccc3)CC2)C1c1cccc([N+](=O)[O-])c1` (centres unmarked) [Example 30, 1,4-Dihydro-3-methoxycarbonyl-2,6-dimethyl-4-(3-nitrophenyl)-5-(N-(3-(4-phenylpiperidin-1-yl)propyl)carboxamido)pyridine] are 155 nM, 117 nM and 53.7 nM.
The corresponding values for `COC(=O)C1=C(C)NC(C)=C(C(=O)NCCCN2CCC(c3ccccc3)CC2)C1c1ccc(C)cc1` (centres unmarked) [Example 31, 1,4-Dihydro-3-methoxycarbonyl-2,6-dimethyl-4-(4-methylphenyl)-5-(N-(3-(4-phenylpiperidin-1-yl)propyl)carboxamido)pyridine] are 112 nM, 158 nM and 20.4 nM.
With `CNC(=O)C1=C(C)NC(C)=C(C(=O)NCCCN2CCC(c3ccccc3)(c3ccccc3)CC2)C1c1ccc([N+](=O)[O-])cc1` (centres unmarked) [Example 38, 1,4-Dihydro-2,6-dimethyl-5-(N-methyl)carboxamido-4-(4-nitrophenyl)-3-{N-[3-(4,4-diphenylpiperidin-1-yl)propyl]}carboxamidopyridine], the “pKi alpha-1 1a” value in experiment [1] is given as 6.21. For the same compound, at α2A receptor, the “pKi alpha-2 2a” value came to 6.40. Further, the “pKi alpha-1 1b” value in experiment [2] (setting [3]) is on record as 6.38.
As to `CC1=C(C(=O)NCCCN2CCC(c3ccccc3)(c3ccccc3)CC2)C(c2ccc([N+](=O)[O-])cc2)C(C(=O)N(C)C)=C(C)N1` (centres unmarked) [Example 39, 1,4-Dihydro-2,6-dimethyl-3-(N,N-dimethyl) carboxamido-4-(4-nitrophenyl)-5-{N-[3-(4,4-diphenylpiperidin-1-yl)propyl]}carboxamidopyridine], the “pKi alpha-1 1a” value in experiment [1] (setting [4]) is 5.77. The “pKi alpha-1 1b” value in experiment [2] (setting [3]) is 5.93.
In the case of `CC(=O)C1=C(C)NC(C)=C(C(=O)NCCCN2CCC(c3ccccc3)(c3ccccc3)CC2)C1c1ccc([N+](=O)[O-])cc1` (centres unmarked) [Example 47, 5-Acetyl-1,4-dihydro-2,6-dimethyl-4-(4-nitrophenyl)-3-{N-[3-(4,4-diphenylpiperidin-1-yl)propyl]}carboxamidopyridine], in experiment [1] (setting [4]), the “pKi alpha-1 1a” value came out at 6.29. For the same compound, at α2A receptor (setting [5]), the “pKi alpha-2 2a” value worked out at 6.22. For the same compound, in experiment [2] (setting [3]), the “pKi alpha-1 1b” value was 6.58.
Regarding `COC(=O)C1=C(C)NC(C)=C(C(=O)OCCCN2CCC(c3ccccc3)CC2)C1c1ccc([N+](=O)[O-])cc1` (centres unmarked) [Example 48, 1,4-Dihydro-5-methazycarbonyl-2,6-dimethyl-4-(4-nitrophenyl)-3-[3-(4-phenylpiperidin-1-yl)propoxy]}carbonylpyridine hydrochloride hydrate], the results for the Ki (in experiment [1] (setting [4]); on α2A receptor (setting [5]); in experiment [2] (setting [3])) were 9.77 nM, 17.4 nM and 2.63 nM, respectively.

(Values after patent US6608086B2, “Dihydropyridines and new uses thereof” (Synaptic Pharmaceutical Corporation, priority 1993, dated 2003).)
